In ChEMBL document CHEMBL2046371, “Synthesis and study of cyclic pronucleotides of 5-fluoro-2'-deoxyuridine” (Bioorg Med Chem Lett, 2012):
pIC50: −log10 of the molar value.

What was measured:
[1] = Cytotoxicity against thymidine kinase-deficient mouse LMTK cells after 5 days by MTT assay; type: cell-based; details: L-M(TK-), 120 h
[2] = tested on: A2780; assay: Cytotoxicity against human A2780 cells after 5 days by MTT assay; type: functional, cell-based; details: A2780, 120 h

Row | SMILES | pIC50 [1] | pIC50 [2]
1 | COC(=O)[C@H](C)N[P@]1(=O)OC[C@H]2O[C@@H](n3cc(F)c(=O)[nH]c3=O)C[C@@H]2O1 | 4.22 | 5.85
2 | COC(=O)[C@H](C)N[P@@]1(=O)OC[C@H]2O[C@@H](n3cc(F)c(=O)[nH]c3=O)C[C@@H]2O1 | 4.90 | 5.85
3 | COC(=O)CNP1(=O)OC[C@H]2O[C@@H](n3cc(F)c(=O)[nH]c3=O)C[C@@H]2O1 (stereo not given in full) | 3.85 | 6.26
4 | COC(=O)[C@H](C)NP(=O)(OC[C@H]1O[C@@H](n2cc(F)c(=O)[nH]c2=O)C[C@@H]1O)Oc1ccccc1 (stereo not given in full) | 4.34 | 5.62
5 | O=c1[nH]c(=O)n([C@H]2C[C@H](O)[C@@H](CO)O2)cc1F [FLOXURIDINE] | 5.35 | 7.59
